Measured values published in the METLIN SMRT retention time set (Domingo-Almenara et al. 2019).

assay: gradient 5% acetonitrile 3 min, to 50% in 2 min, to 85% in 15 min, held 3 min, 100 µL/min; details: column: Zorbax Extend-C18 2.1 x 50 mm; eluents: water / acetonitrile, 0.1% formic acid
Summary of the method: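 Pure standards were run in mixtures of ~100 molecules by HPLC coupled to a quadrupole time-of-flight mass spectrometer. The column was a Zorbax Extend-C18 (2.1 × 50 mm, 1.8 μm) at 100 μL/min, with water and acetonitrile each containing 0.1% formic acid, in positive and negative ionization mode. Dead and dwell volumes were 40 μL and 900 μL. Retention time was taken from computationally picked adduct peaks, each manually inspected, with data collected over 3 months.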

SMILES	RP-LC retention time [s]
CNC(=O)c1cc(=O)[nH]c2ccc(F)cc12	584
CCN(C(=O)c1cc2c(=O)oc3ccccc3c2n1C)c1ccccc1	919
O=S(=O)(c1ccc(-c2noc(-c3cccc(Cl)c3)n2)cc1)N1CCCC1	1260
Cc1ccc(S(=O)(=O)N2CCN(CCc3cn(C)c4ncccc34)CC2)cc1C	656
COc1ccc(-c2csc(C)n2)cc1S(=O)(=O)N1CCN(c2cccc(C)c2C)CC1	1270
COc1ccc2c(c1)C1(CCN(C(=O)c3cccc(F)c3)C1)C(=O)N2 (centres undefined)	717
Cc1nn(-c2ccc(SCC(=O)NC(C)C)nn2)c(C)c1C	776
CC(C)(C)OC(=O)Cn1cnc2c(-c3ccc(Br)cc3)csc2c1=O	1140
NC(=O)C(=O)c1cn(Cc2ccc(F)cc2)c2ccccc12	811
O=C(c1cccnc1)N1CCN(c2cc(-c3cccs3)[nH]n2)CC1	616
COc1ccc(NC(=O)c2cn3c(n2)COCC3)cc1Cl	703
CCOC(=O)C1CCN(C(=O)CCc2cc3cc(C)ccc3[nH]c2=O)CC1	729
O=C(CN1CC=C(c2cnn(-c3ccccc3)c2)CC1)N1CCN(c2ccccc2)CC1	702
O=C1CCCc2cc(S(=O)(=O)N3CCC(C(=O)NCCC4=CCCCC4)CC3)ccc2N1	796
C[C@@H]1CCC2(NC1)O[C@H]1C[C@H]3[C@@H]4CC=C5C[C@@H](O)CC[C@]5(C)[C@H]4CC[C@]3(C)[C@H]1[C@H]2C (some centres undefined)	757
CN(CC1CCOC1)C(=O)c1cccc(Br)c1 (centres undefined)	718
Cc1cc(C)cc(S(=O)(=O)N2CCN(CCc3cn(C)c4ncccc34)CC2)c1	652
O=C(C1CCN(c2nc3ccc(-c4cccnc4)nc3s2)CC1)N1CCOCC1	592
O=S(=O)(Nc1ccc(Cl)cn1)c1cc(-c2noc(C3CCCC3)n2)cs1	1070

SMILES	RP-LC retention time [s]
CCCN1C(=O)c2cc(S(=O)(=O)NCCc3cccs3)ccc2Oc2cccnc21	1050
CCCN(CC1CCOC1)C(=O)Nc1ccccc1CC (centres undefined)	823
COCCNC(=O)N1CC(c2nc(-c3cccnc3)no2)C2(CCOCC2)C1 (centres undefined)	596
CCCS(=O)(=O)c1nc2ccc(NS(=O)(=O)c3cc(C)c(C)cc3C)cc2s1	1040
Cc1oc(-c2[nH]ncc2C(=O)N2CCCC2)cc1S(=O)(=O)Nc1ccc(F)cc1	705
COc1ccc(Cn2nc3ccc(S(=O)(=O)N4CCCCCC4)cn3c2=O)cc1F	681
CCCN1C(=O)c2cccnc2Sc2cc(C(=O)N3CCCCC3)ccc21	772
O=C(c1cccnc1)N1CCCCC1c1nncn1Cc1ccccc1 (centres undefined)	620
CC(C)n1cc(S(=O)(=O)Nc2ccc(Cl)cc2)c2cccnc21	862
O=C(Nc1cc(F)cc(F)c1)N1CCCN(C2CCN(Cc3ccc(F)cc3)C2=O)CC1 (centres undefined)	688
O=S(=O)(Nc1ccc(N2CCOCC2)cc1)c1ccc(-c2nnc(C3CCC3)o2)o1	828
CCn1nccc1C(=O)N1CCC(c2noc(N)c2C)CC1	622
CCn1cc(CN2CCCC(Cn3cc(COC)nn3)C2)c2ccccc21 (centres undefined)	565
O=S(=O)(c1ccc2nncn2c1)N(Cc1ccccc1Cl)c1ccccc1	885
O=C(NCc1cccnc1)C1CCCN(c2ccc(Sc3ccc(Br)cc3)nn2)C1 (centres undefined)	653
O=C(CCc1ccccc1)NCC1CCN(Cc2ccccn2)CC1	556
Cn1c(=O)c2c(ncn2CC(=O)OCc2cc(-c3cccs3)on2)n(C)c1=O	697
Cc1csc(C(=O)NCC(O)c2ccc(C(F)(F)F)cc2)c1 (centres undefined)	795
COc1ccc(OC)c(S(=O)(=O)N2CCc3nn(CC4CC4)c(=O)n3CC2)c1	598

SMILES	RP-LC retention time [s]
CC(=O)N1CCc2cc(N3CC(C(=O)Nc4cccc(C(F)(F)F)c4)CC3=O)ccc21 (centres undefined)	791
O=C(NCCc1c[nH]c2ccccc12)C1CCCN(c2ccc(-n3ccnc3)nn2)C1 (centres undefined)	568
CC1CCN(S(=O)(=O)c2ccc(C(=O)Nc3nc4c(s3)Cc3ccccc3-4)cc2)CC1	1230
CC(NC(=O)Nc1ccccc1)C(c1ccccc1)N1CCN(C)CC1 (centres undefined)	572
O=C(NCc1ccc(F)c(Cl)c1)C1CCCN(c2nccnc2Sc2ccccc2)C1 (centres undefined)	1100
CC1(C)O[C@@H]2C[C@H]3[C@@H]4C[C@H](F)C5=CC(=O)C=C[C@]5(C)[C@@]4(F)[C@@H](O)C[C@]3(C)[C@]2(C(=O)CO)O1	921
Cc1nc(C2CN(S(=O)(=O)c3c(C)c(C)cc(C)c3C)CC23CCOCC3)no1 (centres undefined)	1020
Cc1nc(-c2cc(S(=O)(=O)NCC(=O)N3CCN(c4ccccc4)CC3)c(C)s2)no1	896
O=C(CNC(=O)c1ccccc1)Nc1nc2ccccc2[nH]1	598
COc1ccc(-c2ccc(=O)[nH]n2)cc1OC	582
Cc1cc(N2CCOCC2)nc(N2CCOCC2)n1	624
O=C(CN1CC=C(c2cnn(-c3ccc(F)cc3)c2)CC1)NC1CCCCC1	695
O=C(NCC(=O)N1CCN(c2ccccn2)CC1)c1ccc(OC(F)(F)F)cc1	635
O=C(NCCCN1CCCCCC1)c1ccc2c(c1)NC(=O)C1CCCCN21 (centres undefined)	609
Cc1ccc(-c2nc3cnccn3c2Nc2ccc3c(c2)OCCO3)cc1	841
CCc1ccc(NC(=O)Cn2nc3nc(N4CCCC4)ccn3c2=O)cc1	678
NC(N)=Nc1nc2ccc([N+](=O)[O-])cc2[nH]1	651
Cc1ccc(N2C(=O)N3CCc4c([nH]c5ccccc45)C3(C)C2=O)cc1 (centres undefined)	1020

Second part, the compound after the results:

RP-LC retention time [s]	SMILES
1180	Cc1cc(-c2nc(-c3ccc(F)cc3)no2)c(C)n1CC(=O)N1CCCC(C)C1 (centres undefined)
1120	Cc1cccc(C)c1-n1ccn(Cc2nc(-c3ccc(C(C)(C)C)cc3)no2)c(=O)c1=O
893	Cc1nc2c(ccc3nc(NC(=O)c4cccc(F)c4)sc32)s1
794	COc1ccc(CC(=O)N2CCCC(c3nnc(-c4ccccc4F)s3)C2)cc1OC (centres undefined)
660	COc1cccc(-c2noc3ncnc(N4CCN(c5ccccn5)CC4)c23)c1
644	CCn1cc(CCN2CCC(C(=O)Nc3ccc(C)cc3)CC2)c2cccnc21
594	Cc1ccc2c(Nc3ccc(F)cc3)c(C(=O)N3CCCC3)cnc2n1
1010	O=C(Nc1ccc(F)cc1)C1CCN(S(=O)(=O)c2cc(-c3noc(C4CC4)n3)cs2)CC1
1240	COc1ccc(-c2noc(-c3ccc(N4CCN(c5ccc(OC)cc5)CC4)nc3)n2)cc1
641	COCCNC(=O)CSc1nc(-c2ccccc2)[nH]c1-c1ccccc1
762	O=C(COc1ccc2ccccc2c1)NCC1CCN(c2ncccn2)CC1
887	COc1cc(-c2noc(CCn3nc(-c4ccc(F)cc4)ccc3=O)n2)cc(OC)c1OC
596	COc1cc(NC(=O)Nc2cccc(-c3nccnc3N3CCCC3)c2)cc(OC)c1
871	COc1ccc(Cc2nc3nccc(-c4cccs4)n3n2)cc1
710	O=C(Nc1cnc(N2CCCC2)nc1)c1ccc(F)cc1
1010	Fc1cccc(-n2cc(-c3noc(-c4ccc5c(c4)OCO5)n3)nn2)c1
674	CC(=O)c1ccc(Oc2ccc(/C(C)=N\N=C(N)N)cc2)cc1

RP-LC retention time [s]	SMILES
1030	CS(=O)(=O)N1CCC(C(=O)Nc2ccc(Oc3ccccc3)cc2)Oc2ccccc21 (centres undefined)
923	CCCn1cc(CCNS(=O)(=O)c2ccc(C)c(C)c2)c2cccnc21
1130	COc1cc(OC)cc(-c2nnc(Cc3nc(-c4cccc(Cl)c4)no3)o2)c1
1090	C=CCN(Cc1nc(-c2cccc(C)c2)no1)C(=O)Nc1cccc(C)c1
1190	CCCN1C(=O)COc2ccc(-c3noc(/C=C/c4ccc(OC)cc4)n3)cc21
750	COc1cc2ncnc(Nc3cccc(Cl)c3)c2cc1OC
825	COc1ccc(Br)cc1Cn1nnc(C(=O)NCc2cccs2)c1N
705	CCn1cc(-c2ccncc2)cc1C(=O)NCc1cccc(Br)c1
845	COc1ccc(-c2ccnc3nc(C(C)C)nn23)cc1
699	CCNc1cc(N2CCCC(CCC(=O)Nc3ccc(OCC)cc3)C2)ncn1 (centres undefined)
856	COc1cccc(NC(=O)N(C)CCc2noc(COc3ccc(F)cc3)n2)c1
831	COc1ccccc1C(=O)N1CCCC1c1cc(C(C)C)no1 (centres undefined)
1000	CCn1c(=O)oc2cc(-c3noc(-c4cccc5[nH]ccc45)n3)ccc21
905	O=C(Nc1ccc2c(c1)OCCO2)C1CCCN(S(=O)(=O)Cc2ccc(F)cc2)C1 (centres undefined)
1340	Cc1cc(C)cc(-c2nc(-c3cccc(-c4ccnn4C)c3)no2)c1
760	O=C(Cc1c(F)cccc1Cl)NC1CCN(c2cc(-c3ccc(F)cc3)[nH]n2)C1 (centres undefined)
